From paper PMC8267677, “Inhibitory Mechanisms of Lusianthridin on Human Platelet Aggregation” (International Journal of Molecular Sciences, 2021)

Columns and labels:
cyclooxygenase-2 (COX-2) = biological target: T1, cyclooxygenase-2 (COX-2) (Homo sapiens, UniProt P35354); assay: COX fluorescent inhibitor screening assay kit (Cayman), ADHP/resorufin readout; assay type: biochemical
T1 construct: gene PTGS2
T1 sequence (P35354 18-604): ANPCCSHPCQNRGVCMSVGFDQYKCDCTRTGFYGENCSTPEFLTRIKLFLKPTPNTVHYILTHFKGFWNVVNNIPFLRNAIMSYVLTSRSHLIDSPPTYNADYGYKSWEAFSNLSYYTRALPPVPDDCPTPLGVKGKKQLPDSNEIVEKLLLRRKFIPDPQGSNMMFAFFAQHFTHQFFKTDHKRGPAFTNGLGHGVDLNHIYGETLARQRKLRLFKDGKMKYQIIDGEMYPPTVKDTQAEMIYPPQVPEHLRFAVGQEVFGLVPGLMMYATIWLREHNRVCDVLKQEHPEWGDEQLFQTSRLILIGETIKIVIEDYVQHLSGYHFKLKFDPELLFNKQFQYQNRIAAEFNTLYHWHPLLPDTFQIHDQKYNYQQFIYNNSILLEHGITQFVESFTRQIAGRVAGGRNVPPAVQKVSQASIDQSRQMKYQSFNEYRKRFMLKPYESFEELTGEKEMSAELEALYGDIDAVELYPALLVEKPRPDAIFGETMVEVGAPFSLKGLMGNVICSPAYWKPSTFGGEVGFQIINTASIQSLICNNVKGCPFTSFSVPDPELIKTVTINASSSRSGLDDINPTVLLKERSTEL

cyclooxygenase-1 (COX-1) = biological target: T2, cyclooxygenase-1 (COX-1) (Ovis aries, UniProt P05979); assay: as above; assay type: biochemical
T2 construct: gene PTGS1
T2 sequence (P05979 25-600): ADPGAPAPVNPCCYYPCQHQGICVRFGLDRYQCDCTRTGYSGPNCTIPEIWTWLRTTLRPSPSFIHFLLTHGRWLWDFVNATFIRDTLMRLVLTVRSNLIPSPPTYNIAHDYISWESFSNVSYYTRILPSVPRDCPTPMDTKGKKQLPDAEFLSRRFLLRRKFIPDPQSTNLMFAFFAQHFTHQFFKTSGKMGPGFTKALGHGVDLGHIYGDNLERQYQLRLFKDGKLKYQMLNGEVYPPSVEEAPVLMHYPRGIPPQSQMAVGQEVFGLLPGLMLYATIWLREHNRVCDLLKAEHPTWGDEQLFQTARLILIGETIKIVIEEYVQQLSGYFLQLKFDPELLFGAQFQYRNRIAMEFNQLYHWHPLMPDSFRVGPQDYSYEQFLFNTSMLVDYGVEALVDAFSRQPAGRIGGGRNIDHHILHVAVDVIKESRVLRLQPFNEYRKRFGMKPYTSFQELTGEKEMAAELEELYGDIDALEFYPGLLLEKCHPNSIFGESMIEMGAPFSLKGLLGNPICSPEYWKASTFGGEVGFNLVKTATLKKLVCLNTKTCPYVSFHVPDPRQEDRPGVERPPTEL

COc1cc(O)c2c(c1)CCc1cc(O)ccc1-2 [lusianthridin]
IC50 (cyclooxygenase-2 (COX-2)): 170 nM | IC50 (cyclooxygenase-1 (COX-1)): 10.8 ± 1.12 µM
